Results: ChEMBL document CHEMBL5046233, “Nitroxoline and its derivatives are potent inhibitors of metallo-β-lactamases” (Eur J Med Chem, 2022)
≈ marks a conversion by molar mass, not a printed value.

Tests used:
Escherichia coli [1] = assay: Potentiation of imipenem-induced antibacterial activity against Escherichia coli clinical isolate T2228 expressing VIM-1 assessed as imipenem MIC at 32 mg/L by CLSI protocol based broth microdilution assay; format: functional
HUVEC = assay: Cytotoxicity against HUVEC cells assessed as late apoptosis by analysing number of sub-diploid events at 0.03 to 100 ug/mL measured after 24 hrs by propidium iodide staining based flow cytometry analysis; format: toxicity, cell-based; conditions: human, dose 0.03-100 µg/ml
Escherichia coli [2] = assay: Potentiation of imipenem-induced antibacterial activity against Escherichia coli T2544 expressing VIM-1 assessed as imipenem MIC at 32 mg/L by CLSI protocol based broth microdilution assay; format: functional
Enterobacter cloacae [3] = assay: Potentiation of imipenem-induced antibacterial activity against Enterobacter cloacae T2218 expressing GIM-1 assessed as fold change in imipenem MIC at 32 mg/L by CLSI protocol based broth microdilution assay; format: functional
Escherichia coli [4] = assay: Antimicrobial activity against Escherichia coli T2359 expressing NDM-1 assessed as inhibition of bacterial growth by CLSI protocol based broth microdilution assay; format: functional
Escherichia coli [5] = assay: Potentiation of gentamicin-induced antibacterial activity against Escherichia coli clinical isolate T2228 expressing VIM-1 assessed as gentamicin MIC at 32 mg/L by CLSI protocol based broth microdilution assay; format: functional
Klebsiella pneumoniae [6] = assay: Synergistic antibacterial activity against Klebsiella pneumoniae clinical isolate T2301 expressing NDM-1 assessed as fractional inhibitory concentration index in presence of imipenem by checkerboard assay; format: functional
Enterobacter cloacae [7] = assay: Potentiation of imipenem-induced antibacterial activity against Enterobacter cloacae T2353 expressing VIM-1 assessed as fold change in imipenem MIC at 32 mg/L by CLSI protocol based broth microdilution assay; format: functional
Escherichia coli [8] = assay: Antimicrobial activity against Escherichia coli T2544 expressing VIM-1 assessed as inhibition of bacterial growth by CLSI protocol based broth microdilution assay; format: functional
Pseudomonas aeruginosa [9] = assay: Potentiation of imipenem-induced antibacterial activity against Pseudomonas aeruginosa T1098 expressing IMP-7 assessed as fold change in imipenem MIC at 32 mg/L by CLSI protocol based broth microdilution assay; format: functional
[10] = Cytotoxicity against human HUVEC cells assessed as metabolic activity measured after 24 hrs by cell-titer blue assay; format: toxicity, cell-based
Escherichia coli [11] = assay: Synergistic antibacterial activity against Escherichia coli T2359 expressing NDM-1 assessed as fractional inhibitory concentration index in presence of imipenem by checkerboard assay; format: functional
Enterobacter cloacae [12] = assay: Potentiation of imipenem-induced antibacterial activity against Enterobacter cloacae T2311 expressing NDM-1 assessed as imipenem MIC at 32 mg/L by CLSI protocol based broth microdilution assay; format: functional
Pseudomonas aeruginosa [13] = assay: Potentiation of imipenem-induced antibacterial activity against Pseudomonas aeruginosa T2217 expressing VIM-2 assessed as fold change in imipenem MIC at 32 mg/L by CLSI protocol based broth microdilution assay; format: functional
Pseudomonas aeruginosa [14] = assay: Potentiation of imipenem-induced antibacterial activity against Pseudomonas aeruginosa T2325 expressing IMP-1 assessed as imipenem MIC at 32 mg/L by CLSI protocol based broth microdilution assay; format: functional
Pseudomonas aeruginosa [15] = assay: Potentiation of imipenem-induced antibacterial activity against Pseudomonas aeruginosa T2229 expressing SPM-1 assessed as imipenem MIC at 32 mg/L by CLSI protocol based broth microdilution assay; format: functional
Klebsiella pneumoniae [16] = assay: Potentiation of imipenem-induced antibacterial activity against Klebsiella pneumoniae T2216 expressing VIM-1 assessed as fold change in imipenem MIC at 32 mg/L by CLSI protocol based broth microdilution assay; format: functional
Escherichia coli [17] = assay: Potentiation of imipenem-induced antibacterial activity against Escherichia coli T2351 expressing NDM-5 assessed as imipenem MIC at 32 mg/L by CLSI protocol based broth microdilution assay; format: functional
Serratia marcescens = assay: Potentiation of imipenem-induced antibacterial activity against Serratia marcescens T2352 expressing NDM-1 assessed as imipenem MIC at 32 mg/L by CLSI protocol based broth microdilution assay; format: functional
Enterobacter cloacae [18] = assay: Potentiation of imipenem-induced antibacterial activity against Enterobacter cloacae T2218 expressing GIM-1 assessed as imipenem MIC at 32 mg/L by CLSI protocol based broth microdilution assay; format: functional
Pseudomonas aeruginosa [19] = assay: Potentiation of imipenem-induced antibacterial activity against Pseudomonas aeruginosa T2217 expressing VIM-2 assessed as imipenem MIC at 32 mg/L by CLSI protocol based broth microdilution assay; format: functional
Pseudomonas aeruginosa [20] = assay: Potentiation of imipenem-induced antibacterial activity against Pseudomonas aeruginosa T2282 expressing VIM-2 assessed as fold change in imipenem MIC at 32 mg/L by CLSI protocol based broth microdilution assay; format: functional
Pseudomonas aeruginosa [21] = assay: Potentiation of imipenem-induced antibacterial activity against Pseudomonas aeruginosa T2283 expressing VIM-2 assessed as fold change in imipenem MIC at 32 mg/L by CLSI protocol based broth microdilution assay; format: functional
Escherichia coli [22] = assay: Potentiation of imipenem-induced antibacterial activity against Escherichia coli T2433 expressing OXA-48 assessed as imipenem MIC at 32 mg/L by CLSI protocol based broth microdilution assay; format: functional
Pseudomonas aeruginosa [23] = assay: Potentiation of imipenem-induced antibacterial activity against Pseudomonas aeruginosa T2283 expressing VIM-2 assessed as imipenem MIC at 32 mg/L by CLSI protocol based broth microdilution assay; format: functional
Escherichia coli [24] = assay: Potentiation of imipenem-induced antibacterial activity against Escherichia coli T2433 expressing OXA-48 assessed as fold change in imipenem MIC at 32 mg/L by CLSI protocol based broth microdilution assay; format: functional
Escherichia coli [25] = assay: Potentiation of meropenem-induced antibacterial activity against Escherichia coli clinical isolate T2228 expressing VIM-1 assessed as meropenem MIC at 32 mg/L by CLSI protocol based broth microdilution assay; format: functional
Escherichia coli [26] = assay: Synergistic antibacterial activity against Escherichia coli clinical isolate T2228 expressing VIM-1 assessed as fractional inhibitory concentration index in presence of imipenem by checkerboard assay; format: functional
Bacteria [27] = assay: Inhibition of recombinant VIM-1 (unknown origin) using fluorocillin as substrate at 30 uM incubated for 30 mins by fluorescence based assay
Citrobacter freundii = assay: Potentiation of imipenem-induced antibacterial activity against Citrobacter freundii T2354 expressing VIM-4 assessed as fold change in imipenem MIC at 32 mg/L by CLSI protocol based broth microdilution assay; format: functional
Pseudomonas aeruginosa [28] = assay: Potentiation of imipenem-induced antibacterial activity against Pseudomonas aeruginosa T2325 expressing IMP-1 assessed as fold change in imipenem MIC at 32 mg/L by CLSI protocol based broth microdilution assay; format: functional
Klebsiella pneumoniae [29] = assay: Potentiation of imipenem-induced antibacterial activity against Klebsiella pneumoniae T2216 expressing VIM-1 assessed as imipenem MIC at 32 mg/L by CLSI protocol based broth microdilution assay; format: functional
Bacteria [30] = assay: Inhibition of recombinant IMP-1 (unknown origin) using fluorocillin as substrate at 10 uM incubated for 30 mins by fluorescence based assay
Escherichia coli [31] = assay: Potentiation of imipenem-induced antibacterial activity against Escherichia coli T2359 expressing NDM-1 assessed as imipenem MIC at 32 mg/L by CLSI protocol based broth microdilution assay; format: functional
Klebsiella pneumoniae [32] = assay: Potentiation of imipenem-induced antibacterial activity against Klebsiella pneumoniae T2432 expressing KPC-9 assessed as fold change in imipenem MIC at 32 mg/L by CLSI protocol based broth microdilution assay; format: functional

MIC (Escherichia coli [1]): 1 ng/mL
MIC (Escherichia coli [2]): 0.5 ng/mL
MIC (Escherichia coli [4]): > 0.064 µg/mL
MIC (Escherichia coli [5]): 2 ng/mL
MIC (Escherichia coli [8]): > 0.065 µg/mL
MIC (Enterobacter cloacae [12]): 0.5 ng/mL
MIC (Pseudomonas aeruginosa [14]): 1 ng/mL
MIC (Pseudomonas aeruginosa [15]): 0.032 µg/mL
MIC (Escherichia coli [17]): 1 ng/mL
MIC (Serratia marcescens): 0.25 µg/mL
MIC (Enterobacter cloacae [18]): 0.5 ng/mL
MIC (Pseudomonas aeruginosa [19]): 0.016 µg/mL
MIC (Escherichia coli [22]): 2 ng/mL
MIC (Pseudomonas aeruginosa [23]): 1 ng/mL
MIC (Escherichia coli [25]): 0.125 µg/mL
inhibition (Bacteria [27]): 100%
MIC (Klebsiella pneumoniae [29]): 0.5 ng/mL
inhibition (Bacteria [30]): 93%
MIC (Escherichia coli [31]): 0.5 ng/mL
Structure (SMILES): N#CCN(Cc1ccccc1)Cc1cc([N+](=O)[O-])c2cccnc2c1O
Activity (HUVEC): Toxic
fold change (FC) (Enterobacter cloacae [3]): 4
fractional inhibitory concentration index (FICI) (Klebsiella pneumoniae [6]): 0.265
fold change (FC) (Enterobacter cloacae [7]): 8
fold change (FC) (Pseudomonas aeruginosa [9]): 8
IC50 at 24 h [10]: 45 µg/mL (≈ 129 µM)
fractional inhibitory concentration index (FICI) (Escherichia coli [11]): 0.265
fold change (FC) (Pseudomonas aeruginosa [13]): 16
fold change (FC) (Klebsiella pneumoniae [16]): 8
fold change (FC) (Pseudomonas aeruginosa [20]): 32
fold change (FC) (Pseudomonas aeruginosa [21]): 32
fold change (FC) (Escherichia coli [24]): 1
fractional inhibitory concentration index (FICI) (Escherichia coli [26]): 0.265
fold change (FC) (Citrobacter freundii): 8
fold change (FC) (Pseudomonas aeruginosa [28]): 32
fold change (FC) (Klebsiella pneumoniae [32]): 2
